Source: US12570657B2, “Mesylate salts of heterocyclic cytokinins, compositions containing these derivatives and use thereof” (UNIVERZITA PALACKEHO V OLOMOUCI, priority 2020, dated 2026)

Assays:
[1] = test system: cytokinin-dependent tobacco callus; test: Tobacco callus biotest (stimulation of plant cell division); format: cell-based, Nicotiana tabacum L. cv. Wisconsin 38; conditions: callus growth at concentration with highest activity; 10^−5 M BAP = 100%
Method: Stimulation effect of the cytokinin mesylates was tested in tobacco callus biotest using cytokinin dependent tobacco callus. Cytokinin-dependent tobacco callus Nicotiana tabacum L. cv. […] Subcultivation was carried out every three weeks. Fourteen days before the bioassay, the callus tissue was transferred to the media without BAP. Biological activity was determined from the increase in fresh callus weight after four weeks of cultivation. Five replicates were prepared for each cytokinin concentration and the entire test was repeated twice. […] Relative activity of the compound at this concentration was calculated (Tab. 15). The activity obtained for 10^−5 M 6-benzylaminopurine (BAP) was postulated as 100%. The cytokinin bases to be tested were dissolved in dimethylsulfoxide (DMSO) and the solution brought up to 10^−3 M with distilled water. The mesylate salts were dissolved directly in distilled water.

[2] = test system: K562 (chronic myeloid leukemia); test: In vitro cytotoxicity, Calcein AM assay, K-562; format: cell-based; conditions: Homo sapiens, K562, 72 h, 3-day Calcein-AM assay
From the text: (§1) Because toxic compounds adversely affect cell metabolic processes, many standard cytotoxicity assays are based on measuring the rate of metabolism of various artificial substrates. The resulting product is then quantified, for example, by spectrometry. Assays can be easily modified for use in 96-well plates, A microtiter assay based on the quantification of Calcein AM metabolism was used to evaluate the cytotoxicity of cytokinins, for example meta-topolin, ortho-topolin, kinetin, BAP or its mesylate salts, but also a number of other cytokinin mesylate derivatives according to the invention. The test is widely used in drug screening programs and in chemosensitivity testing. In living cells, Calcein AM is enzymatically hydrolyzed and the accumulation of the resulting calcein is manifested by green fluorescence. […] These cells were maintained in standard DMEM or RPMI medium (Sigma, MO, USA) supplemented with heat-inactivated fetal bovine serum (10%) with 2 mM L-glutamine and penicillin-streptomycin (1%) under standard cell culture conditions (37° C., 5% CO2 in a humid environment) and subcultured two or three times a week using a standard trypsinization procedure. Approximately 10,000 cells in 80 μl of medium were seeded in a 96-well microtiter plate. After 12 hours of incubation, the compounds to be tested were added in 20 μl aliquots. Control cultures were treated with DMSO alone. […] After 72 hours of incubation, Calcein AM solution (Molecular Probes) was added to a final concentration of 1 μg/ml and the cells were incubated for another hour.
(§2) Cytoxicity of compounds was tested on panel of cell lines of different histogenetic and species origin.

[3] = test system: G361 (malignant melanoma); test: In vitro cytotoxicity, Calcein AM assay, G-361; format: cell-based; conditions: Homo sapiens, 72 h, 3-day Calcein-AM assay
From the text: (§3) Because toxic compounds adversely affect cell metabolic processes, many standard cytotoxicity assays are based on measuring the rate of metabolism of various artificial substrates. The resulting product is then quantified, for example, by spectrometry. Assays can be easily modified for use in 96-well plates, A microtiter assay based on the quantification of Calcein AM metabolism was used to evaluate the cytotoxicity of cytokinins, for example meta-topolin, ortho-topolin, kinetin, BAP or its mesylate salts, but also a number of other cytokinin mesylate derivatives according to the invention. The test is widely used in drug screening programs and in chemosensitivity testing. In living cells, Calcein AM is enzymatically hydrolyzed and the accumulation of the resulting calcein is manifested by green fluorescence. The following cell lines—RPMI 8226 (multiple myeloma), CEM (T-lymphoblastic leukemia), K562 (chronic myeloid leukemia), HL-60 (promyelocytic, leukemia), MCF-7 (breast adenocarcinoma), HeLa (cervical cancer), G361 (malignant melanoma), HOS (human osteosarcoma) and BJ (human foreskin fibroblasts)—were obtained from the American Type Culture Collection (Manassas, VA, USA). These cells were maintained in standard DMEM or RPMI medium (Sigma, MO, USA) supplemented with heat-inactivated fetal bovine serum (10%) with 2 mM L-glutamine and penicillin-streptomycin (1%) under standard cell culture conditions (37° C., 5% CO2 in a humid environment) and subcultured two or three times a week using a standard trypsinization procedure. Approximately 10,000 cells in 80 μl of medium were seeded in a 96-well microtiter plate. After 12 hours of incubation, the compounds to be tested were added in 20 μl aliquots. Control cultures were treated with DMSO alone. […] Serial, 3-fold dilutions (six in total, peak concentrations in 166 μM incubations) of each compound were tested. After 72 hours of incubation, Calcein AM solution (Molecular Probes) was added to a final concentration of 1 μg/ml and the cells were incubated for another hour. Free calcein fluorescence was then quantified using a Fluoroscan Ascent fluorometer (Microsystems), and the percentage of surviving cells in each well was calculated by dividing the OD obtained from each cell by the exposed cells by the mean OD obtained from control wells×100%, Finally, IC50 values (concentration causing a 50% decrease in cellular esterase activity) were calculated for each compound generated from dose-response curves (Krys̆tof et al., 2005, Bioorg. Med. Chem. Lett. 12, 3283-3286). The IC50 values reported here are averages obtained from at least three independent experiments, where the individual replication values fell within 20% of the average. Growth inhibition was calculated using the following equation: IC50=(mean FDwell exposed to drug−mean FDblank)/(mean FDcontrol well−mean FDblank)×100%.
as §2

[4] = test system: MCF-7 (breast adenocarcinoma); test: In vitro cytotoxicity, Calcein AM assay, MCF7; format: cell-based; conditions: Homo sapiens, MCF7, 72 h, 3-day Calcein-AM assay
From the text: as §1, §2

[5] = test system: HL-60 (promyelocytic, leukemia); test: In vitro cytotoxicity, Calcein AM assay, HL60; format: cell-based; conditions: Homo sapiens, HL-60, 72 h, 3-day Calcein-AM assay
From the text: as §1, §2

[6] = test system: CEM (T-lymphoblastic leukemia); test: In vitro cytotoxicity, Calcein AM assay, CEM; format: cell-based; conditions: 72 h, 3-day Calcein-AM assay
From the text: as §1, §2

[7] = test system: NIH-3T3; test: In vitro cytotoxicity, Calcein AM assay, NIH-3T3; format: cell-based; conditions: Mus musculus, NIH3T3, 72 h, 3-day Calcein-AM assay
From the text: as §3, with “Growth inhibition was calculated using the following equation: IC50=(mean FDwell exposed to drug−mean FDblank)/(mean FDcontrol well−mean FDblank)×100%.” left out

[8] = test system: HOS (human osteosarcoma); test: In vitro cytotoxicity, Calcein AM assay, HOS; format: cell-based; conditions: Homo sapiens, 72 h, 3-day Calcein-AM assay
From the text: as §1, §2

SMILES | activity (%) [10^−5 mol · l^−1 BAP = 100%] [1] | IC50 [2] | IC50 [3] | IC50 [4] | IC50 [5] | IC50 [6] | IC50 [7] | IC50 [8]
Clc1ccccc1CNc1ncnc2nc[nH]c12 [2ClBAP, 6-(2-chlorobenzylamino)purine] | 93% | 101 µM | 56.6 µM | 164 µM | 110 µM | 58.4 µM | > 167 µM | 84.9 µM
Fc1ccccc1CNc1ncnc2nc[nH]c12 [2FBAP, 6-(2-fluorobenzylamino)purine] |  | 136 µM | 106 µM | > 167 µM |  | 98 µM |  | > 167 µM
Clc1cccc(CNc2ncnc3nc[nH]c23)c1 [3ClBAP, 6-(3-chlorobenzylamino)purine] | 94% |  | 149 µM | > 167 µM | > 167 µM | > 167 µM |  | > 167 µM
Fc1cccc(CNc2ncnc3nc[nH]c23)c1 [3FBAP, 6-(3-fluorobenzylamino)purine] |  | 105 µM | > 167 µM | 163 µM | > 167 µM | > 167 µM |  | > 167 µM
Fc1ccc(CNc2ncnc3nc[nH]c23)cc1 [4FBAP, 6-(4-fluorobenzylamino)purine] |  | > 167 µM | > 167 µM | > 167 µM | 59.2 µM | 66.4 µM |  | > 167 µM
COc1ccc(CNc2ncnc3nc[nH]c23)cc1 [4MeOBAP, 6-(4-methoxybenzylamino)purine] |  | > 167 µM | ≥ 167 µM | > 167 µM | > 167 µM | > 167 µM | > 167 µM | > 167 µM
